Assays:
[1] = system: Mycobacterium tuberculosis Erdman (autoluminescent); assay: total FIC50 (Loewe) at 50% inhibition, three-drug combination (log2); higher = more antagonistic
Protocol: (§1)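 DiaMOND equipotent three-drug combination dose responses (10 doses, 1.5- or 2-fold spacing, centred on IC90) against autoluminescent M. tuberculosis Erdman in 8 in vitro models. Read-out is OD600, or luminescence for the intracellular and dormancy models, normalised to untreated wells. Hill-fit Einf, AUC25 and GRinf are potency metrics; FIC50 and FIC90 are total Loewe fractional inhibitory concentrations as log2 (negative = synergy).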

[2] = system: Mycobacterium tuberculosis Erdman (autoluminescent); assay: total FIC90 (Loewe) at 90% inhibition, three-drug combination (log2); higher = more antagonistic
Protocol: as §1

[3] = system: Mycobacterium tuberculosis Erdman (autoluminescent); assay: AUC25, normalised area under dose response up to IC25 (three-drug combination) (fraction (0-1)); higher = more potent at low dose
Protocol: as §1

[4] = system: Mycobacterium tuberculosis Erdman (autoluminescent); assay: GRinf, maximum normalised growth rate inhibition (three-drug combination) (unitless (-1 to 1)); higher = less effect (negative = killing)
Protocol: as §1

[5] = system: Mycobacterium tuberculosis Erdman (autoluminescent); assay: Einf, fitted maximum growth inhibition of three-drug combination (fraction); higher = stronger maximal inhibition
Protocol: as §1

CC[C@@H](CO)NCCN[C@@H](CC)CO [ethambutol] + CO[C@H]1/C=C/O[C@@]2(C)Oc3c(C)c(O)c4c(O)c(c(/C=N/N5CCN(C6CCCC6)CC5)c(O)c4c3C2=O)NC(=O)/C(C)=C\C=C\[C@H](C)[C@H](O)[C@@H](C)[C@@H](O)[C@@H](C)[C@H](OC(C)=O)[C@@H]1C [rifapentine] + CO[C@H]1/C=C/O[C@@]2(C)Oc3c(C)c(O)c4c(O)c(c(/C=N/N5CCN(C)CC5)c(O)c4c3C2=O)NC(=O)/C(C)=C\C=C\[C@H](C)[C@H](O)[C@@H](C)[C@@H](O)[C@@H](C)[C@H](OC(C)=O)[C@@H]1C [rifampicin]
Details | AUC25, [3] | Einf, [5] | GRinf, [4] | total FIC50, [1] | total FIC90, [2]
in vitro model: acidic pH 5.7, time point: constant (~7 days, model-specific) | 0.0788 | 0.863 | -0.0676 | -0.0556 | –
in vitro model: acidic pH 5.7, time point: terminal (~4-5 doublings, model-specific) | 0.0407 | 0.966 | -0.0521 | 0.0683 | -0.673
in vitro model: intracellular J774, time point: constant = terminal | – | 0.964 | -0.359 | – | -2.2

Details | AUC25, [3] | Einf, [5] | GRinf, [4] | total FIC50, [1] | total FIC90, [2]
in vitro model: butyrate, time point: constant (~7 days, model-specific) | 0.0871 | 0.924 | -0.00846 | 0.0694 | –
in vitro model: butyrate, time point: terminal (~4-5 doublings, model-specific) | 0.0718 | 0.965 | -0.0114 | 0.0725 | -0.469
in vitro model: cholesterol 0.05 mM, time point: constant (~7 days, model-specific) | 0.12 | 0.674 | -0.208 | -0.109 | –
in vitro model: cholesterol 0.05 mM, time point: terminal (~4-5 doublings, model-specific) | 0.0846 | 0.884 | -0.0993 | -0.106 | –
in vitro model: cholesterol-high 0.2 mM, time point: constant (~7 days, model-specific) | 0.0408 | 0.947 | -0.442 | 0.69 | –
in vitro model: cholesterol-high 0.2 mM, time point: terminal (~4-5 doublings, model-specific) | 0.0471 | 1 | -0.703 | 0.74 | 0.613
in vitro model: dormancy (butyrate + nitrate, low O2), time point: constant (~7 days, model-specific) | 0.066 | 0.854 | 0.363 | -0.0614 | –
in vitro model: dormancy (butyrate + nitrate, low O2), time point: terminal (~4-5 doublings, model-specific) | 0.0493 | 0.981 | -0.104 | 0.286 | -0.687
in vitro model: standard 7H9 glycerol, time point: constant = terminal | 0.0475 | 0.909 | 0.0838 | 0.231 | –
in vitro model: valerate, time point: constant (~7 days, model-specific) | 0.0622 | 0.889 | 0.0114 | -0.0551 | –
in vitro model: valerate, time point: terminal (~4-5 doublings, model-specific) | 0.0314 | 0.936 | 0.0132 | 0.133 | -0.823

CC[C@@H](CO)NCCN[C@@H](CC)CO [ethambutol] + COc1c(N2C[C@@H]3CCCN[C@@H]3C2)c(F)cc2c(=O)c(C(=O)O)cn(C3CC3)c12 [moxifloxacin] + CO[C@H]1/C=C/O[C@@]2(C)Oc3c(C)c(O)c4c(O)c(c(/C=N/N5CCN(C6CCCC6)CC5)c(O)c4c3C2=O)NC(=O)/C(C)=C\C=C\[C@H](C)[C@H](O)[C@@H](C)[C@@H](O)[C@@H](C)[C@H](OC(C)=O)[C@@H]1C [rifapentine]
Details | AUC25, [3] | Einf, [5] | GRinf, [4] | total FIC50, [1] | total FIC90, [2]
in vitro model: acidic pH 5.7, time point: constant (~7 days, model-specific) | 0.071 | 0.869 | 0.0546 | 0.231 | –
in vitro model: acidic pH 5.7, time point: terminal (~4-5 doublings, model-specific) | 0.0263 | 0.959 | -0.0323 | 0.724 | 0.104
in vitro model: intracellular J774, time point: constant = terminal | – | 0.975 | -0.351 | – | -1.53

Details | AUC25, [3] | Einf, [5] | GRinf, [4] | total FIC50, [1] | total FIC90, [2]
in vitro model: butyrate, time point: constant (~7 days, model-specific) | 0.0619 | 0.916 | 0.00267 | 0.508 | –
in vitro model: butyrate, time point: terminal (~4-5 doublings, model-specific) | 0.0506 | 0.961 | -0.00309 | 0.467 | -0.223
in vitro model: cholesterol 0.05 mM, time point: constant (~7 days, model-specific) | 0.104 | 0.635 | -0.31 | 0.788 | –
in vitro model: cholesterol 0.05 mM, time point: terminal (~4-5 doublings, model-specific) | 0.0642 | 0.834 | 0.155 | 1.57 | –
in vitro model: cholesterol-high 0.2 mM, time point: constant (~7 days, model-specific) | 0.0293 | 0.932 | -0.315 | 1.07 | –
in vitro model: cholesterol-high 0.2 mM, time point: terminal (~4-5 doublings, model-specific) | 0.0405 | 1 | -0.787 | 1.22 | 0.977
in vitro model: dormancy (butyrate + nitrate, low O2), time point: constant (~7 days, model-specific) | 0.0738 | 0.842 | 0.339 | 0.142 | –
in vitro model: dormancy (butyrate + nitrate, low O2), time point: terminal (~4-5 doublings, model-specific) | 0.116 | 0.993 | -0.177 | 0.309 | 0.994
in vitro model: standard 7H9 glycerol, time point: constant = terminal | 0.044 | 0.906 | 0.0179 | 0.47 | 0.148
in vitro model: valerate, time point: constant (~7 days, model-specific) | 0.0523 | 0.893 | -0.0774 | 0.833 | –
in vitro model: valerate, time point: terminal (~4-5 doublings, model-specific) | 0.0364 | 0.942 | -0.0136 | 0.843 | -0.33
